Consider 24 molecules from ChEMBL document CHEMBL3244137, “Synthesis and antimicrobial activity of azasteroid-type compounds and related systems. Effect of hydrophilic and lipophilic groups on activity” (1977).

Holding throughout (type): functional
Experiment [1] concerns Bacillus subtilis. Nature of the experiment: Growth inhibition of Bacillus subtilis at 5 ug/ml. The conditions noted are these: for inhibition at 5 µg/mL: Bacillus subtilis.
Experiment [2] concerns Pseudomonas fluorescens. As to the kind of experiment: Growth inhibition of Pseudomonas fluorescens at 91 ug/ml.
The test system of experiment [3] is KB. Nature of the experiment: Plating efficiency of human KB cells at 25 ug/ml.
The test system of experiment [4] is KB. As to the kind of experiment: Growth inhibition of human KB cells at 150 ug/ml. As to conditions: read-out: GI.
Experiment [5] relates to KB. As to the kind of experiment: Plating efficiency of human KB cells at 150 ug/ml.
For experiment [6], the system named is KB. As to the kind of experiment: Growth inhibition of human KB cells at 25 ug/ml. The conditions noted are these: read-out: GI.
Experiment [7] has as its system KB. Nature of the experiment: Growth inhibition of human KB cells at 12.5 ug/ml. The conditions noted are these: read-out: GI.
Experiment [8] relates to Bacillus subtilis. As to the kind of experiment: Growth inhibition of Bacillus subtilis at 91 ug/ml.
For experiment [9], the system named is KB. As to the kind of experiment: Plating efficiency of human KB cells at 12.5 ug/ml.
Experiment [10] has as its system Bacillus subtilis. Nature of the experiment: Growth inhibition of Bacillus subtilis at 45 ug/ml.
Experiment [11] deals with Pseudomonas fluorescens. Nature of the experiment: Growth inhibition of Pseudomonas fluorescens at 45 ug/ml.
Experiment [12] relates to Pseudomonas fluorescens. As to the kind of experiment: Growth inhibition of Pseudomonas fluorescens at 50 ug/ml.
Experiment [13] has as its system Bacillus subtilis. Nature of the experiment: Growth inhibition of Bacillus subtilis at 50 ug/ml.
The subject of experiment [14] is KB. Nature of the experiment: Plating efficiency of human KB cells at 50 ug/ml.
Experiment [15] deals with KB. As to the kind of experiment: Growth inhibition of human KB cells at 50 ug/ml. As to conditions: read-out: GI.
The subject of experiment [16] is Bacillus subtilis. Nature of the experiment: Growth inhibition of Bacillus subtilis at 90 ug/ml.
The test system of experiment [17] is Pseudomonas fluorescens. Nature of the experiment: Growth inhibition of Pseudomonas fluorescens at 90 ug/ml.
The subject of experiment [18] is Pseudomonas fluorescens. As to the kind of experiment: Growth inhibition of Pseudomonas fluorescens at 5 ug/ml.
The subject of experiment [19] is Bacillus subtilis. Nature of the experiment: Growth inhibition of Bacillus subtilis at 10 ug/ml.
Experiment [20] deals with Bacillus subtilis. As to the kind of experiment: Growth inhibition of Bacillus subtilis at 20 ug/ml.

The term inhibition denotes the percentage by which the read-out fell short of the control. Lower therefore signals a weak effect.

For the molecule `COc1ccc2c(c1)CCc1sc(N)nc1-2`, at 5 µg/mL the inhibition in [1] was 40%.
As for `COc1ccc2c(c1)CCc1cnoc1-2`, the inhibition at 91 µg/mL amounted to 0% in experiment [2] and 100% in experiment [8]. Also, the Activity in [3] was found to be 67%; in experiment [5], 0%; in [9] it was 100%. Moreover, in [4], the inhibition of growth at 150 µg/mL came out at 100%. Moreover, the inhibition of growth at 25 µg/mL in experiment [6] came to 33%. In [7], the inhibition of growth at 12.5 µg/mL came out at 0%.
Regarding `COc1ccc2c(c1)CCc1c[nH]nc1-2`, the inhibition at 91 µg/mL in experiment [8] was found to be 0%.
As for `OCCOc1ccc2c(c1)CCc1cn[nH]c1-2`, the inhibition at 91 µg/mL in [8] worked out at 0%.
Still for that read-out and setting: to `CN(C)CCOc1ccc2c3c(ccc2c1)C(=O)CCC3` belongs 100%; to `CN(C)CCOc1ccc2c(c1)CCc1cn[nH]c1-2`, 0%.
As for `CCCCCCOc1ccc2c(c1)CCc1cn[nH]c1-2`, the inhibition at 45 µg/mL in experiment [10] came to 100%; in [11], 0%.
Consider `CCCCCCCCCCCCCCCCOc1ccc2c(c1)CCc1cn[nH]c1-2`, for which, in [8], testing at 91 µg/mL gave an inhibition of 0%.
As to `CCCCCCOc1ccc2c(c1)CCc1cnn([C@@H]3O[C@H](COC(C)=O)[C@@H](OC(C)=O)[C@H](OC(C)=O)[C@H]3OC(C)=O)c1-2`, the inhibition at 91 µg/mL in experiment [2] is 0%; in experiment [8] it was 100%. Further, the inhibition at 50 µg/mL was determined as 0% in experiment [12] and 100% in experiment [13].
Consider `COc1ccc2c(c1)CCc1cnn([C@@H]3O[C@H](COC(C)=O)[C@@H](OC(C)=O)[C@H](OC(C)=O)[C@H]3OC(C)=O)c1-2`, for which the inhibition at 91 µg/mL in experiment [2] and in [8] was 100% each time. Further, the Activity in [14] worked out at 0%. This molecule yielded an inhibition at 5 µg/mL in [1] of 100%. For the same molecule, the inhibition of growth at 50 µg/mL in experiment [15] turned out to be 100%.
Consider `CCCCCCOc1ccc2c(c1)CCc1cnn(CCN(CCCl)CCCl)c1-2`, for which, in experiment [1], the inhibition at 5 µg/mL amounted to 100%.
In experiment [10], `COc1ccc2c(c1)CCc1cnn(CCSCCCl)c1-2` had an inhibition at 45 µg/mL of 100%.
As to `CCCCCCOc1ccc2c(c1)CCc1cnoc1-2`, the inhibition at 45 µg/mL in experiment [10] and in [11] was 0% throughout. Besides, testing at 91 µg/mL in experiment [8] gave an inhibition of 100%.
In turn, `COc1ccc2c(c1)CC[C@]1(C)C(=O)NN=C21` came in with an inhibition at 91 µg/mL in [8] of 0%.
As for `CCCCCCOc1ccc2c(c1)CC[C@]1(C)C(=O)NN=C21`, the inhibition at 91 µg/mL in [2] and in experiment [8] was 0% each time.
In experiment [3], `CCCCCCOc1ccc2c(c1)CCc1sc(N)nc1-2` had an Activity of 0%. Also, the “inhibition (INH)” value in [1] is reported as 100%. For the same molecule, the inhibition of growth at 25 µg/mL in experiment [6] came out at 100%.
In the case of `COc1ccc2c(c1)CCc1sc(N)nc1-2.Cl`, the inhibition at 90 µg/mL in [16] came out at 100%; in experiment [17] it was 25%. In addition, the “inhibition (INH)” value in experiment [1] is 47%. For the same molecule, testing at 5 µg/mL in experiment [18] gave an inhibition of 0%.
For `CCCCCCOc1ccc2c(c1)CCc1sc(N)nc1-2.Cl`, in that order: 60%, 25%, 12% and 11%.
On to `COc1ccc2c3c(ccc2c1)-c1[nH]ncc1CC3`, for which testing at 90 µg/mL in experiment [17] gave an inhibition of 48%. The same molecule showed an inhibition at 91 µg/mL in experiment [8] of 7.8%.
For `CN(C)CCOc1ccc2c3c(ccc2c1)-c1[nH]ncc1CC3`, the inhibition at 91 µg/mL in [2] was 0%; in experiment [8], 100%.
On to `CCCCCCOc1ccc2c3c(ccc2c1)-c1[nH]ncc1CC3`, for which, in experiment [8], the inhibition at 91 µg/mL was 100%.
Regarding `c1cnc2c(c1)-c1[nH]ncc1CC2`, the inhibition at 90 µg/mL in experiment [17] was determined as 0%. The inhibition at 10 µg/mL in experiment [19] is 100%.
`C[n+]1cccc2c1CCc1cn[nH]c1-2` displayed an inhibition at 91 µg/mL in experiment [8] of 50%.
In experiment [20], `COc1ccc2c(c1)CCc1cnn(CCN(CCCl)CCCl)c1-2` came in with an inhibition at 20 µg/mL of 100%.
